The numbers were not newly measured in patent US20230233646A1, “METHOD OF TREATMENT OF CONGENITAL MYASTHENIC SYNDROME USING DOK7 GENE OR POLYPEPTIDE” (priority 2020, published 2023), which cites them from elsewhere.

In the data set the test system is peripheral cholinesterase enzyme.

Turning to `CN(C)C(=O)Oc1ccc[n+](C)c1` [Pyridostigmine], the “fraction of peripheral cholinesterase enzyme carbamylated” value is recorded as “about 30%”.
